Laboratory results: ChEMBL document CHEMBL3727358, “Inhibitors of inducible form of 6-phosphofructose-2-kinase” (2014)

Tests used:
[1] = target: T1, 6-phosphofructo-2-kinase/fructose-2,6-bisphosphatase 3 (Homo sapiens, UniProt Q16875); assay: Inhibition of iPFK2 (unknown origin) assessed as reduction in enzyme-mediated fructose-6-phosphate phosphorylation by measuring NADH absorbance pre-incubated for 10 mins before ATP/substrate addition followed by incubation for 1 hr by UV-Visible spectrometry based iPFK-2/PPI-PFK coupled enzyme assay
[2] = target: T1, 6-phosphofructo-2-kinase/fructose-2,6-bisphosphatase 3; assay: Inhibition of iPFK2 (unknown origin) assessed as reduction in enzyme-mediated fructose-6-phosphate phosphorylation by measuring ATP consumption incubated for 3 hrs by luciferase-luciferin-coupled chemiluminescence assay

T1 sequence (Q16875 whole entry): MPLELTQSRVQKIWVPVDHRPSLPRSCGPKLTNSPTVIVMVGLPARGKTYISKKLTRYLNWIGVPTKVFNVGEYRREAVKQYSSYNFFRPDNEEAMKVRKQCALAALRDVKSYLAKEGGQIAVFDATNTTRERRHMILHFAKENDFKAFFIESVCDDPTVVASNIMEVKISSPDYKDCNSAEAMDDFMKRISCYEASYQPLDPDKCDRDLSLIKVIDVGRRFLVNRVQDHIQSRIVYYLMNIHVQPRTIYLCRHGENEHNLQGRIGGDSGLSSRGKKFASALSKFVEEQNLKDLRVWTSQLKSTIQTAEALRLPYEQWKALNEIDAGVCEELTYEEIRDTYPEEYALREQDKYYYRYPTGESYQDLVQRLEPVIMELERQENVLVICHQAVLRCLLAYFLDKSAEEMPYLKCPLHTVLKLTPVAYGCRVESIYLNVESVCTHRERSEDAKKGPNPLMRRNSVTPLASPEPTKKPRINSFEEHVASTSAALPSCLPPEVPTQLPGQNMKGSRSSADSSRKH

Compound | IC50 [1] [nM] | IC50 [2] [nM]
Cc1nc(NCC2CCCN(C(=O)C3CCC3)C2)cc(-c2ccc3ncsc3c2)n1 (stereo unspecified) | > 1000 | 
COc1cccc([C@H](C)Nc2cc(-c3ccc4c(c3)CCO4)nc(C)n2)c1 | 500 | 500
CCN(C)C(=O)COc1cccc(C(C)Nc2cc(-c3ccc4ncsc4c3)nc(C)n2)c1 (stereo unspecified) | 500 | 
Cc1nc(NCc2cc(O)ccc2F)cc(-c2ccc3ncsc3c2)n1 | 500 | 500
Cc1nc(NC(C)c2cccc(NC(=O)c3ccn[nH]3)c2)cc(-c2ccc3ncsc3c2)n1 (stereo unspecified) | 500 | > 1000
COc1ccc(Br)c(CNc2cc(-c3ccc4ncsc4c3)nc(C)n2)c1 | 500 | > 1000
Cc1cc(-c2cc(N[C@@H]3CCCc4ccccc43)nc(C)n2)ccn1 | > 1000 | > 1000
C#CCOc1cccc(C(C)Nc2cc(-c3ccc4ncsc4c3)nc(C)n2)c1 (stereo unspecified) | 500 | 500
Cc1nc(N[C@@H]2CCCc3ccccc32)cc(-c2ccc(Cl)c(COC(C)C(=O)O)c2)n1 (stereo partly specified) | 500 | 
Cc1nc(NC(C)c2cccc(OCCN(C)C)c2)cc(-c2ccc3ncsc3c2)n1 (stereo unspecified) | 500 | 
COc1cccc([C@H](C)Nc2cc(-c3ccc(C)c(N)c3)nc(C)n2)c1 | > 1000 | 
Cc1nc(N[C@@H]2CCCc3ccccc32)cc(-c2ccc3nonc3c2)n1 | > 1000 | 
Cc1nc(N[C@@H]2CCCc3ccccc32)cc(-c2ccc3ncccc3c2)n1 | > 1000 | 
COc1cccc([C@H](C)Nc2cc(-c3cc4ccccc4o3)nc(C)n2)c1 | > 1000 | > 1000
COCCNS(=O)(=O)c1cccc(C(C)Nc2cc(-c3ccc4ncsc4c3)nc(C)n2)c1 (stereo unspecified) | > 1000 | > 1000
COc1cccc(-c2cc(NC(C)c3cccc(O)c3)nc(C)n2)c1F (stereo unspecified) | > 1000 | > 1000
Cc1nc(NC(C)c2cccc(NC(=O)NC(N)=O)c2)cc(-c2ccc3ncsc3c2)n1 (stereo unspecified) | 500 | > 1000
COc1cccc([C@H](C)Nc2cc(-c3cc4ccccc4n3C)nc(C)n2)c1 | 500 | 500
Cc1nc(NC(C)c2cccc(OCCN(C)C)c2)cc(-c2ccc3occ(C)c3c2)n1 (stereo unspecified) | > 1000 | 
Cc1nc(NCC2CCCN(C(=O)CN(C)C(=O)c3ccccc3)C2)cc(-c2ccc3ncsc3c2)n1 (stereo unspecified) | > 1000 | 
Cc1nc(N[C@@H]2CCCc3ccccc32)cc(-c2cc3ccccc3s2)n1 | 500 | > 1000
CCN(CC)C(=O)COc1cccc(C(C)Nc2cc(-c3ccc4c(c3)N(C)CCO4)nc(C)n2)c1 (stereo unspecified) | > 1000 | 

Compound | IC50 [1] [nM] | IC50 [2] [nM]
Cc1nc(NC(C)c2cccc(OCC3CCCN(C(=O)OC(C)(C)C)C3)c2)cc(-c2ccc3ncsc3c2)n1 (stereo unspecified) | > 1000 | > 1000
Cc1nc(N[C@@H](C)c2cccc(/C=C/C(=O)NC(C)(C)C)c2)cc(-c2ccc3ncsc3c2)n1 | 500 | 
Cc1nc(N[C@@H]2CCCc3ccccc32)cc(-c2ccc(C#N)cc2)n1 | > 1000 | > 1000
Cc1nc(NC(C)c2cccc(NS(=O)(=O)c3cn(C)cn3)c2)cc(-c2ccc3ncsc3c2)n1 (stereo unspecified) | > 1000 | > 1000
Cc1nc(NC(C)c2ccc(F)c(-c3cnn(C)c3)c2)cc(-c2ccc3ncsc3c2)n1 (stereo unspecified) | 500 | > 1000
Cc1nc(NC(C)c2cccc(OCC(=O)Nc3ccccc3)c2)cc(-c2ccc3ncsc3c2)n1 (stereo unspecified) | > 1000 | > 1000
Cc1nc(NC(C)c2cccc(OCC#N)c2)cc(-c2ccc3ccn(C)c3c2)n1 (stereo unspecified) | 500 | 500
Cc1nc(NC(C)c2cccc(-c3nn[nH]n3)c2)cc(-c2ccc3ncsc3c2)n1 (stereo unspecified) | > 1000 | 
Cc1nc(NC(C)c2cccc(OCc3cc(C)on3)c2)cc(-c2ccc3ncsc3c2)n1 (stereo unspecified) | 500 | 500
Cc1nc(NC(C)c2cccc(-c3ccnc(N)n3)c2)cc(-c2ccc3ncsc3c2)n1 (stereo unspecified) | > 1000 | 
Cc1nc(N[C@@H]2CCCc3ccccc32)cc(-c2ccc3nccnc3c2)n1 | > 1000 | 
COc1cccc(-c2cc(N[C@@H]3CCCc4ccccc43)nc(C)n2)c1F | 500 | > 1000
Cc1nc(NC(C)c2cccc(OCC3CCN(C(=O)OC(C)(C)C)CC3)c2)cc(-c2ccc3ncsc3c2)n1 (stereo unspecified) | > 1000 | > 1000
COCCNC(=O)COc1cccc(C(C)Nc2cc(-c3ccc4ncsc4c3)nc(C)n2)c1 (stereo unspecified) | 500 | 
Cc1nc(N[C@@H]2CCCc3ccccc32)cc(-c2ccc3cnn(C)c3c2)n1 | 500 | 500
Cc1nc(N[C@@H](C)c2cccc(-c3cnc(N4CCCCC4)nc3)c2)cc(-c2ccc3ncsc3c2)n1 | 500 | 
Cc1nc(NC(C)c2cccc(-c3cnn(C)c3)c2)cc(-c2ccc(F)c(Cl)c2)n1 (stereo unspecified) | > 1000 | 
COc1cccc(Oc2cc(N[C@@H]3CCCc4ccccc43)nc(C)n2)c1 | > 1000 | 
COc1ccc(-c2cc(NC(C)c3cccc(-c4cnn(C)c4)c3)nc(C)n2)cc1 (stereo unspecified) | 500 | 500
Cc1nc(N[C@@H]2CCCc3ccccc32)cc(-c2ccc3c(c2)C(=O)C=CC3)n1 | 500 | 
Cc1nc(NC(C)c2cccc(-c3cnn(CC(=O)O)c3)c2)cc(-c2ccc3ncsc3c2)n1 (stereo unspecified) | 500 | 
Cc1nc(N[C@@H]2CCOc3ccccc32)cc(-c2ccc3ncsc3c2)n1 | > 1000 | > 1000

Compound | IC50 [1] [nM] | IC50 [2] [nM]
Cc1nc(NC(C)c2cccc(OC(C)C(N)=O)c2)cc(-c2ccc3ncsc3c2)n1 (stereo unspecified) | 500 | > 1000
Cc1nc(NC(C)c2cccc(NC(=O)CN(C)C(=O)OC(C)(C)C)c2)cc(-c2ccc3ncsc3c2)n1 (stereo unspecified) | > 1000 | 
Cc1nc(NCC2CCCN(C(=O)C3CCCCC3)C2)cc(-c2ccc3ncsc3c2)n1 (stereo unspecified) | > 1000 | 
Cc1nc(NC(C)c2cccc(NC=O)c2)cc(-c2ccc3ncsc3c2)n1 (stereo unspecified) | > 1000 | > 1000
Cc1nc(NC(C)c2cccc(-c3cnn(C)c3)c2)cc(-c2cc(F)c(F)c(F)c2)n1 (stereo unspecified) | 500 | 
Cc1nc(NC(C)c2cccc(-c3cnn(C)c3)c2)cc(-c2ccc3ccccc3c2)n1 (stereo unspecified) | > 1000 | 
Cc1nc(NC(C)c2ccc(Cl)c(O)c2)cc(-c2ccc3occ(C)c3c2)n1 (stereo unspecified) | 500 | > 1000
Cc1nc(NC(C)c2cccc(OCC(N)=O)c2)cc(-c2cc3ccccc3n2C)n1 (stereo unspecified) | 500 | 
Cc1nc(NCc2cc(OCC(=O)N3CCOCC3)ccc2F)cc(-c2ccc3ncsc3c2)n1 | > 1000 | 
Cc1nc(NC(C)c2cccc(NC(N)=O)c2)cc(-c2ccc3ncsc3c2)n1 (stereo unspecified) | > 1000 | > 1000
Cc1nc(N[C@H](C)c2cccc(-c3cnn(C)c3)c2)cc(-c2cccc(F)c2)n1 | > 1000 | 
Cc1nc(NC(C)c2cccc(-c3cnn(C)c3)c2)cc(-c2ccc(Cl)cc2Cl)n1 (stereo unspecified) | 500 | 500
COc1cccc([C@H](C)Nc2cc(-c3ccc4ncccc4c3)nc(C)n2)c1 | > 1000 | 
Cc1nc(NC(C)c2cccc(S(=O)(=O)NCCO)c2)cc(-c2ccc3ncsc3c2)n1 (stereo unspecified) | > 1000 | 500
Cc1nc(NC(C)c2cccc(-c3cnn(C)c3)c2)cc(-c2ccccc2C)n1 (stereo unspecified) | > 1000 | > 1000
Cc1nc(NCC2CCCN(C(=O)c3ccc[nH]3)C2)cc(-c2ccc3ncsc3c2)n1 (stereo unspecified) | > 1000 | 
CC(=O)N1CCN(CCOc2cccc(C(C)Nc3cc(-c4ccc5ncsc5c4)nc(C)n3)c2)CC1 (stereo unspecified) | 500 | 
Cc1nc(N[C@@H]2CCCc3ccccc32)cc(-c2ccc(C)c(O)c2)n1 | 500 | 500
Cc1nc(N[C@H](C)c2ccnc(-c3cnn(C)c3)c2)cc(-c2ccc3occ(C)c3c2)n1 | > 1000 | 
CCN(CC)C(=O)COc1cccc(C(C)Nc2cc(-c3cccc(OC)c3F)nc(C)n2)c1 (stereo unspecified) | > 1000 | > 1000
Cc1nc(N[C@@H]2CCCc3ccccc32)cc(-c2cc3ccccc3[nH]2)n1 | > 1000 | > 1000
Cc1nc(NC(C)c2cccc(OCC[C@H](O)c3ccccc3)c2)cc(-c2ccc3ncsc3c2)n1 (stereo partly specified) | > 1000 | 

Compound | IC50 [1] [nM] | IC50 [2] [nM]
Cc1cc(COc2ccc(F)c(C(C)Nc3cc(-c4ccc5ncsc5c4)nc(C)n3)c2)n(C)n1 (stereo unspecified) | > 1000 | > 1000
Cc1nc(NC(C)c2cccc(OCC3CCNCC3)c2)cc(-c2ccc3ncsc3c2)n1 (stereo unspecified) | 500 | 500
Cc1nc(NCc2cc(OCC(=O)N(C)C)ccc2F)cc(-c2ccc3ncsc3c2)n1 | 500 | 
Cc1nc(N[C@H](C)c2cccc(O)c2)cc(-c2ccc3ncsc3c2)n1 | > 1000 | > 1000
Cc1nc(NC(C)c2cccc(-c3cnn(C)c3)c2)cc(-c2ccc(F)c(F)c2)n1 (stereo unspecified) | 500 | 
CCN(CC)c1ncc(-c2cccc([C@H](C)Nc3cc(-c4ccc5ncsc5c4)nc(C)n3)c2)cn1 | 500 | 
Cc1nc(NC(C)c2cccc(NC(=O)c3ccn(C)n3)c2)cc(-c2ccc3ncsc3c2)n1 (stereo unspecified) | 500 | > 1000
Cc1nc(NC(C)c2cccc(OCC(=O)NC3CC3)c2)cc(-c2ccc3ncsc3c2)n1 (stereo unspecified) | 500 | 
Cc1nc(NC(C)c2cccc(OCCCN3CCCC3)c2)cc(-c2ccc3ncsc3c2)n1 (stereo unspecified) | 500 | 
CCN(CC)C(=O)COc1cccc(C(C)Nc2cc(-c3ccc4ccccc4c3)nc(C)n2)c1 (stereo unspecified) | 500 | 
COc1cc(-c2cc(NC(C)c3cccc(O)c3)nc(C)n2)ccc1C (stereo unspecified) | 500 | > 1000
Cc1nc(NC(C)c2cccc(/C(N)=N/O)c2)cc(-c2ccc3ncsc3c2)n1 (stereo unspecified) | > 1000 | 
Cc1nc(NC(C)c2cccc(OCC(=O)NCC(C)O)c2)cc(-c2ccc3ncsc3c2)n1 (stereo unspecified) | > 1000 | 500
Cc1nc(NC(C)c2cccc(-c3cnn(C)c3)c2)cc(-c2cccc(N(C)C)c2)n1 (stereo unspecified) | > 1000 | 
COc1cc(C(C)Nc2cc(-c3ccc4ncsc4c3)nc(C)n2)ccn1 (stereo unspecified) | 500 | 
Cc1nc(NC(C)c2cccc(OCC(=O)C3CC3)c2)cc(-c2ccc3ncsc3c2)n1 (stereo unspecified) | > 1000 | > 1000
Cc1nc(NC(C)c2cccc(OCC(=O)O)c2)cc(-c2ccc3ncsc3c2)n1 (stereo unspecified) | > 1000 | 
Cc1nc(N[C@H](C)c2cccc(-c3cnn(C)c3)c2)cc(-c2ccc3ncsc3c2)n1 | > 1000 | 
COc1ccc(-c2cc(NC(C)c3cccc(-c4cnn(C)c4)c3)nc(C)n2)c(F)c1 (stereo unspecified) | > 1000 | 
